What was measured:
[1] = biological target: standard panel of 30 kinases; assay: Kinase selectivity panel (SelectScreen Z'-LYTE), number of kinases inhibited; assay type: biochemical, human; settings: count out of 30 kinases
Description: Prior art document WO 2012/010704, which is completely silent about the pharmacokinetic profile of its compounds, discloses compounds with similar substituents in the 2-position, e.g. compounds I-166, I-167 and I-175, which share the previously undefined, desirable pharmacokinetic profile with compounds (I) according to the invention.
(§1) In order to compare the kinase selectivity of compounds (I) according to the invention with known prior art compounds the commercially provided SelectScreen® Kinase Profiling Service (Z′-LYTE®) was used (Life Technologies GmbH, Darmstadt, Germany) to investigate the ability of the compounds to inhibit a number of different, representatively selected human kinases. Further details regarding this service are available on the Life Technologies website at
(§2) The Z′-LYTE® biochemical assay employs a fluorescence-based, coupled-enzyme format and is based on the differential sensitivity of phosphorylated and non-phosphorylated peptides to proteolytic cleavage. The peptide substrate is labeled with two fluorophores—one at each end—that make up a FRET pair.
(§3) In the primary reaction, the kinase transfers the gamma-phosphate of ATP to a single tyrosine, serine or threonine residue in a synthetic FRET-peptide. In the secondary reaction, a site-specific protease recognizes and cleaves non-phosphorylated FRET-peptides. Phosphorylation of FRET-peptides suppresses cleavage by the Development Reagent. Cleavage disrupts FRET between the donor (i.e., coumarin) and acceptor (i.e., fluorescein) fluorophores on the FRET-peptide, whereas uncleaved, phosphorylated FRET-peptides maintain FRET. A ratiometric method, which calculates the ratio (the Emission Ratio) of donor emission to acceptor emission after excitation of the donor fluorophore at 400 nm, is used to quantitate reaction progress, as shown in the equation below.
(§4) The Test Compounds are screened at 1 μM.

CDK2/cyclin A = biological target: T1, CDK2/cyclin A (Homo sapiens, UniProt P24941); assay: Z'-LYTE kinase selectivity assay CDK2/cyclin A; assay type: biochemical; settings: read-out: CDK2/CYCLINA % inhibition
T1 construct: purchased Life Technologies PV 3267
Description: as §1, §2, §3, §4
The 2×CDK2/cyclin A (# PV 3267)/Ser/Thr 12 (Z′-LYTE® Kinase Assay Kit—Ser/Thr 12 Peptide, # PV 3673) mixture is prepared in 50 mM HEPES pH 7.5, 0.01% BRIJ-35, 10 mM MgCl2, 1 mM EGTA. The final 10 μL Kinase Reaction consists of 1.22-10.3 ng CDK2/cyclin A and 2 μM Ser/Thr 12 in 50 mM HEPES pH 7.5, 0.01% BRIJ-35, 10 mM MgCl2. 1 mM EGTA. After the 1 hour Kinase Reaction incubation, 5 μL of a 1:4096 dilution of Development Reagent A is added.

LCK = biological target: T2, LCK (Homo sapiens, UniProt P06239); assay: Z'-LYTE kinase selectivity assay LCK; assay type: biochemical
T2 construct: purchased Life Technologies P 3043
T2 sequence (P06239 whole entry): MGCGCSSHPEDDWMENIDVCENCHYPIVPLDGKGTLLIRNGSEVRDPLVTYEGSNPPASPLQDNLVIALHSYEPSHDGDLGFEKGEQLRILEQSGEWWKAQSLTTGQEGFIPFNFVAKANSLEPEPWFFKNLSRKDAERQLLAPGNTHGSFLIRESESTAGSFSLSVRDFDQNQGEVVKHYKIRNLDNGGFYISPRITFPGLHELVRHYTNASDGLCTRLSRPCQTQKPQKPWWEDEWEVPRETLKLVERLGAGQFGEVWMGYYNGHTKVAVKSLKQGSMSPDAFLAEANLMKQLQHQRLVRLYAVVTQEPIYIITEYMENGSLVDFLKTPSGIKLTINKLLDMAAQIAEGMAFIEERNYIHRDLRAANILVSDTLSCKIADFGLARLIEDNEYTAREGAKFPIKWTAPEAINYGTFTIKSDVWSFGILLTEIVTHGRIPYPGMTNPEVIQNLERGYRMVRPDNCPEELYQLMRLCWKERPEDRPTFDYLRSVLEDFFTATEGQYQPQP
Description: as §1, §2, §3, §4
The 2×LCK (# P 3043)/Tyr 02 (Z′-LYTE® Kinase Assay Kit—Tyrosine 2 Peptide, # PV 3191) mixture is prepared in 50 mM HEPES pH 7.5, 0.01% BRIJ-35, 10 mM MgCl2, 1 mM EGTA. The final 10 μL Kinase Reaction consists of 2.46-50 ng LCK and 2 μM Tyr 02 in 50 mM HEPES pH 7.5, 0.01% BRIJ-35, 10 mM MgCl2, 1 mM EGTA. After the 1 hour Kinase Reaction incubation, 5 μL of a 1:128 dilution of Development Reagent A is added.

MAPK14 (p38 alpha) = biological target: T3, MAPK14 (p38 alpha) (Homo sapiens, UniProt Q16539); assay: Z'-LYTE kinase selectivity assay MAPK14; assay type: biochemical
T3 construct: purchased Life Technologies PV 3304
T3 sequence (Q16539 whole entry): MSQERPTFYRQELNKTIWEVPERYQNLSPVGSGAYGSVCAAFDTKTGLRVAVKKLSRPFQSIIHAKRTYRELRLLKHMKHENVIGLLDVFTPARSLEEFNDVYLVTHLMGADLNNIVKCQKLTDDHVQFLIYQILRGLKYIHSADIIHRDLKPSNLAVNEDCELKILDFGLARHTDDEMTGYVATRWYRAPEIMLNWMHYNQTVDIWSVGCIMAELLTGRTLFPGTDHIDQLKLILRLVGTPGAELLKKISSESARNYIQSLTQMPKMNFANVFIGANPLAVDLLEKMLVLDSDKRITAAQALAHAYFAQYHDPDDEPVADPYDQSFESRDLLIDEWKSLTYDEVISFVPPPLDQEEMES
Description: as §1, §2, §3, §4
After the 1 hour Kinase Reaction incubation, 5 μL of a 1:1024 dilution of Development Reagent A is added.

MAPKAPK2 = biological target: T4, MAPKAPK2 (Homo sapiens, UniProt P49137); assay: Z'-LYTE kinase selectivity assay MAPKAPK2; assay type: biochemical
T4 construct: purchased Life Technologies PV 3317
T4 sequence (P49137 whole entry): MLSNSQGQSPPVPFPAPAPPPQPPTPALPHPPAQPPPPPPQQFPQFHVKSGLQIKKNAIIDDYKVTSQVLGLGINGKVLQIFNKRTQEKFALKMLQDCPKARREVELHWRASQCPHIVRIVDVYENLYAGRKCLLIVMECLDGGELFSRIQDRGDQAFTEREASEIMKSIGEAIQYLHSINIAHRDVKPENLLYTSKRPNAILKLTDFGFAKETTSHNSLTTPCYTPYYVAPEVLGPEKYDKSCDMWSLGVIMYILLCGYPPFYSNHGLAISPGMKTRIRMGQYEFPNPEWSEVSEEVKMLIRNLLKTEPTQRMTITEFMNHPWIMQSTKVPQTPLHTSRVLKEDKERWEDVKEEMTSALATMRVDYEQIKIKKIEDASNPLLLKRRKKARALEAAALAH
Description: as §1, §2, §3, §4
The 2×MAPKAPK2 (# PV 3317)/Ser/Thr 04 (Z′-LYTE® Kinase Assay Kit—Ser/Thr 4 Peptide, # PV 3177) mixture is prepared in 50 mM HEPES pH 7.5, 0.01% BRIJ-35, 10 mM MgCl2, 1 mM EGTA. The final 10 μL Kinase Reaction consists of 0.04-0.18 ng MAPKAPK2 and 2 μM Ser/Thr 04 in 50 mM HEPES pH 7.5, 0.01% BRIJ-35, 10 mM MgCl2, 1 mM EGTA. After the 1 hour Kinase Reaction incubation, 5 μL of a 1:1024 dilution of Development Reagent A is added.

STK3 (MST2) = biological target: T5, STK3 (MST2) (Homo sapiens, UniProt Q13188); assay: Z'-LYTE kinase selectivity assay STK3; assay type: biochemical
T5 construct: purchased Life Technologies PV 4805
T5 sequence (Q13188 1-491): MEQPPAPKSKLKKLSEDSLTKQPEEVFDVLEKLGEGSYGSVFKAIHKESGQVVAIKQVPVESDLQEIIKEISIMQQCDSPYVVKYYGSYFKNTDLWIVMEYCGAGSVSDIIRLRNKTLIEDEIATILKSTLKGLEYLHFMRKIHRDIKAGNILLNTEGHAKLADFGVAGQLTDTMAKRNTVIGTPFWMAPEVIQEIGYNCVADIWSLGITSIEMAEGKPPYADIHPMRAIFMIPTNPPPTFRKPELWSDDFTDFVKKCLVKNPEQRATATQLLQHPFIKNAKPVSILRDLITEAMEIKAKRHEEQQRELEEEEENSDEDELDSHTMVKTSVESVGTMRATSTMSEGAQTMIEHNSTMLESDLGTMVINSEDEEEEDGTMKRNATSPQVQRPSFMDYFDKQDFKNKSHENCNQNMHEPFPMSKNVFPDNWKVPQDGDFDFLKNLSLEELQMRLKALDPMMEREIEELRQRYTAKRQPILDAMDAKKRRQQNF
Description: as §1, §2, §3, §4
The 2×STK3 (MST2) (# PV 4805)/Ser/Thr 07 (Z′-LYTE® Kinase Assay Kit—Ser/Thr 7 Peptide, # PV 3180) mixture is prepared in 50 mM HEPES pH 6.5, 0.01% BRIJ-35, 10 mM MgCl2, 1 mM EGTA, 0.02% NaN3. The final 10 μL Kinase Reaction consists of 6.25-38.7 ng STK3 (MST2) and 2 μM Ser/Thr 07 in 50 mM HEPES pH 7.0, 0.01% BRIJ-35, 10 mM MgCl2, 1 mM EGTA, 0.01% NaN3. After the 1 hour Kinase Reaction incubation, 5 μL of a 1:65000 dilution of Development Reagent A is added.

Structure (SMILES): C[C@@H]1Cc2nn(C)c(-c3ccccc3)c2-c2nc(Nc3ccn(CCN4CCN(C)CC4)n3)ncc21 [Compound I-1]
- # kinases inhibited >50% @ 1 μM [1]: 6/30
- inhibition at 1 µM (CDK2/cyclin A): 72%
- inhibition at 1 µM (LCK): 85%
- inhibition at 1 µM (MAPK14 (p38 alpha)): -5%
- inhibition at 1 µM (MAPKAPK2): -3%
- inhibition at 1 µM (STK3 (MST2)): 1%

Structure (SMILES): C[C@@H]1Cc2nn(C)c(-c3ccccc3)c2-c2nc(Nc3ccn(CCN4CCOCC4)n3)ncc21 [Compound I-2]
- # kinases inhibited >50% @ 1 μM [1]: 7/30
- inhibition at 1 µM (CDK2/cyclin A): 56%
- inhibition at 1 µM (LCK): 78%
- inhibition at 1 µM (MAPK14 (p38 alpha)): 7%
- inhibition at 1 µM (MAPKAPK2): 1%
- inhibition at 1 µM (STK3 (MST2)): 5%

Structure (SMILES): C[C@@H]1Cc2nn(C)c(-c3ccccc3)c2-c2nc(Nc3ccn(CCN4CCN(CC(C)(C)O)CC4)n3)ncc21 [Compound I-3]
- # kinases inhibited >50% @ 1 μM [1]: 6/30
- inhibition at 1 µM (CDK2/cyclin A): 66%
- inhibition at 1 µM (LCK): 82%
- inhibition at 1 µM (MAPK14 (p38 alpha)): 2%
- inhibition at 1 µM (MAPKAPK2): 2%
- inhibition at 1 µM (STK3 (MST2)): -1%

Structure (SMILES): CC(O)CN1CCN(CCn2ccc(Nc3ncc4c(n3)-c3c(nn(C)c3-c3ccccc3)C[C@H]4C)n2)CC1 (stereo partly drawn) [Compound I-7]
- # kinases inhibited >50% @ 1 μM [1]: 6/30
- inhibition at 1 µM (CDK2/cyclin A): 74%
- inhibition at 1 µM (LCK): 84%
- inhibition at 1 µM (MAPK14 (p38 alpha)): 2%
- inhibition at 1 µM (MAPKAPK2): 5%
- inhibition at 1 µM (STK3 (MST2)): 15%

Structure (SMILES): C[C@@H]1Cc2nn(C)c(-c3ccccc3)c2-c2nc(Nc3ccn(CCN4CCN(CC(=O)OC5CCOCC5)CC4)n3)ncc21 [Compound I-8]
- # kinases inhibited >50% @ 1 μM [1]: 3/30
- inhibition at 1 µM (CDK2/cyclin A): 49%
- inhibition at 1 µM (LCK): 59%
- inhibition at 1 µM (MAPK14 (p38 alpha)): -5%
- inhibition at 1 µM (MAPKAPK2): 5%
- inhibition at 1 µM (STK3 (MST2)): -1%

Structure (SMILES): C[C@@H]1Cc2nn(C)c(-c3ccccc3)c2-c2nc(Nc3ccn(CCN4CCN(CC5CCCO5)CC4)n3)ncc21 (stereo partly drawn) [Compound I-9]
- # kinases inhibited >50% @ 1 μM [1]: 6/30
- inhibition at 1 µM (CDK2/cyclin A): 63%
- inhibition at 1 µM (LCK): 80%
- inhibition at 1 µM (MAPK14 (p38 alpha)): 4%
- inhibition at 1 µM (MAPKAPK2): 3%
- inhibition at 1 µM (STK3 (MST2)): -15%

Structure (SMILES): COCCN1CCN(CCn2ccc(Nc3ncc4c(n3)-c3c(nn(C)c3-c3ccccc3)C[C@H]4C)n2)CC1 [Compound I-11]
- # kinases inhibited >50% @ 1 μM [1]: 4/30
- inhibition at 1 µM (CDK2/cyclin A): 53%
- inhibition at 1 µM (LCK): 76%
- inhibition at 1 µM (MAPK14 (p38 alpha)): 1%
- inhibition at 1 µM (MAPKAPK2): -2%
- inhibition at 1 µM (STK3 (MST2)): -2%
